# Results published in patent US20260317314A1, “NITROGEN-CONTAINING HETEROCYCLIC COMPOUND AND USE THEREOF” (JIANGSU DEYUAN PHARMACEUTICAL CO.,LTD., priority 2023, published 2026).
# What was measured:
# [1] = system: MDR1-MDCKII cells; assay: Permeability test in MDR1-MDCKII monolayer cell model; format: in vitro ADME; conditions: 2 μM, pH 7.40, 2.5 hours, 37±1° C.
# Description: (§1) Experimental objective: The permeability and efflux ratio of the compound of the present disclosure were determined using the MDR1-MDCKII monolayer cell model to assess its membrane permeability and potential for P-gp-mediated efflux transport.
# (§2) Experimental protocol: MDR1-MDCKII cells (obtained from the Netherlands Cancer Institute) were seeded in 96-well plates (obtained from Corning) at a cell density of 3.33×10^5 cells/mL and cultured for 4 to 7 days to form confluent cell monolayers. Hank's balanced salt solution containing 10 mM HEPES (pH 7.40) was used as the transport buffer. The test compound was evaluated for bidirectional transport at a concentration of 2 μM, with the DMSO concentration in the incubation system maintained below 1%. After adding the samples, the cell plate was incubated at 37±1° C., 5% CO2, and saturated humidity for 2.5 hours. All samples were quantitatively analyzed using the LC-MS/MS method. The apparent permeability coefficient (Papp, cm/s) and efflux ratio (ER) were calculated using the following formula. Apparent permeability coefficient (Papp, cm/s) was calculated using the following formula: Papp=(dCr/dt)×Vr/(A×C0). Herein, dCr/dt represents the cumulative concentration of the compound at the receiving end per unit time (μM/s); Vr is the volume of the solution at the receiving end (with solution volumes at the apical and basolateral ends being 0.075 mL and 0.250 mL, respectively); A is the relative surface area of the cell monolayer (0.143 cm^2); C0 is the initial concentration of the test substance at the dosing end (μM) or the peak area ratio of the reference substance. The efflux ratio was calculated using the following formula: ER=Papp(BA)/Papp(AB).
# [2] = system: plasma protein; assay: Plasma protein binding rate test, cynomolgus monkey (equilibrium dialysis); format: in vitro ADME; conditions: 37° C., 4 hours
# Source text: (§3) The sample was thoroughly mixed.
# [3] = system: plasma protein; assay: Plasma protein binding rate test, human (equilibrium dialysis); format: in vitro ADME; conditions: 37° C., 4 hours
# Source text: as §3
# [4] = In vivo pharmacokinetics study in rats; set-up: species or system SD rat; conditions: rat, plasma, male SD rats, oral 2 mg/kg
# [5] = Permeability test in MDR1-MDCKII monolayer cell model; format: in vitro ADME; conditions: dog
# Description: as §1, §2
# [6] = In vitro liver microsome metabolic stability study; format: in vitro ADME; conditions: human liver microsomes 0.5 mg/mL, compound 1 μM, 37° C., up to 60 minutes; read-out: Intrinsic hepatic clearance CLint(liver)
# Description: Stock solution: 10 mM in DMSO.
# Only 54 μL of microsomal working solution, 6 μL of NADPH regeneration system working solution, and 180 μL of stop solution were added to the blank plate.
# LC-MS/MS analysis was performed.
# [7] = Plasma protein binding rate test, cynomolgus monkey (equilibrium dialysis); format: in vitro ADME; conditions: 37° C., read-out: Plasma protein binding rate (%) in cynomolgus monkeys (converted)
# Source text: as §3
# [8] = Plasma protein binding rate test, human (equilibrium dialysis); format: in vitro ADME; conditions: 37° C.
# Source text: as §3
# [9] = target: T1, CYP1A2 (Homo sapiens, UniProt P05177); assay: Human liver microsome CYP inhibition assay, CYP1A2; format: in vitro ADME; conditions: role: inhibitor; human liver microsomes, probe substrate; read-out: CYP1A2 half maximal inhibitory concentration IC50
# T1 construct: Mixed human liver microsomes (HLM) were purchased from Corning Inc; tissue Corning Inc; host or cells: mixed human liver microsomes (HLM)
# T1 sequence (P05177 1-516): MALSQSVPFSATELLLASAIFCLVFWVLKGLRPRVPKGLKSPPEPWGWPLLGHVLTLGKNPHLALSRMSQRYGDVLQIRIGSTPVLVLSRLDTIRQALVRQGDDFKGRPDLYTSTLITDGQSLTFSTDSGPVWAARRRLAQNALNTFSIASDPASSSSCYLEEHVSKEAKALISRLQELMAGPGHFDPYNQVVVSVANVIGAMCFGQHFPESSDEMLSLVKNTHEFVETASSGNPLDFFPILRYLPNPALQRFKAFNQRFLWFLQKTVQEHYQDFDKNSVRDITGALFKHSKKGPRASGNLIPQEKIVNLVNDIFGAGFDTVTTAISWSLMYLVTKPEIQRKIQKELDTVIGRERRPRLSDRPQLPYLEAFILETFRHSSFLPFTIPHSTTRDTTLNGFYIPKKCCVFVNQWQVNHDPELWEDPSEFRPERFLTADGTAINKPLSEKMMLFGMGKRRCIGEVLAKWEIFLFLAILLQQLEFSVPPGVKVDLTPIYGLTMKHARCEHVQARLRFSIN
# Description: (§4) Experimental objective: To evaluate the inhibitory activity of the test substance on human liver microsomal cytochrome P450 isoenzymes (CYP1A2, CYP2C9, CYP2C19, CYP2D6, CYP3A4) using a 5-in-1 probe substrate for CYP isoenzymes.
# (§5) Mixed human liver microsomes (HLM) were purchased from Corning Inc. (Steuben, New York, USA) and stored at temperatures below −70° C. prior to use.
# (§6) The working solution of the test substance, which had been diluted to a series of concentrations, was added to an incubation system containing human liver microsomes, probe substrates, and auxiliary factors of the circulatory system. A control containing solvent but no test substance served as an enzyme activity control (100%). The concentration of metabolites produced from probe substrates in the samples was determined using Liquid Chromatography-Tandem Mass Spectrometry (LC-MS/MS) method. Non-linear regression analysis of the average percentage activity of the test substance against its concentration was conducted using SigmaPlot (V.11). The IC50 values were calculated using a three-parameter or four-parameter inverse log equation.
# [10] = target: T2, CYP2C9 (Homo sapiens, UniProt P11712); assay: Human liver microsome CYP inhibition assay, CYP2C9; format: in vitro ADME; conditions: role: inhibitor; human liver microsomes, probe substrate; read-out: CYP2C9 half maximal inhibitory concentration IC50
# T2 construct: Mixed human liver microsomes (HLM) were purchased from Corning Inc; tissue Corning Inc; host or cells: mixed human liver microsomes (HLM)
# T2 sequence (P11712 whole entry): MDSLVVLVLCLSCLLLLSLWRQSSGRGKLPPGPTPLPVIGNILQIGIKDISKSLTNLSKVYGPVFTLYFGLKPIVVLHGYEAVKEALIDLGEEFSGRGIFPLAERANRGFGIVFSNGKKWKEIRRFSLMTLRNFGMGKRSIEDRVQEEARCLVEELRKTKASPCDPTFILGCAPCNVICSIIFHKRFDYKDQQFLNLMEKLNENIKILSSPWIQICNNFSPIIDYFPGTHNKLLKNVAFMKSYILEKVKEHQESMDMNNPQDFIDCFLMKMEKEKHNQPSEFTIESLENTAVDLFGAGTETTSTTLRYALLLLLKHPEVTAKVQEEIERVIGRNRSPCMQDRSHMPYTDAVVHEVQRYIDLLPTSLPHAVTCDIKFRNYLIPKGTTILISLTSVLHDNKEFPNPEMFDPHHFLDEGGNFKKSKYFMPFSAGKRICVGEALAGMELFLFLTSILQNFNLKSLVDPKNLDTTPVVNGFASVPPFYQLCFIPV
# Description: as §4, §5, §6
# [11] = target: T3, CYP2C19 (Homo sapiens, UniProt P33261); assay: Human liver microsome CYP inhibition assay, CYP2C19; format: in vitro ADME; conditions: role: inhibitor; human liver microsomes, probe substrate; read-out: CYP2C19 half maximal inhibitory concentration IC50
# T3 construct: Mixed human liver microsomes (HLM) were purchased from Corning Inc; tissue Corning Inc; host or cells: mixed human liver microsomes (HLM)
# T3 sequence (P33261 whole entry): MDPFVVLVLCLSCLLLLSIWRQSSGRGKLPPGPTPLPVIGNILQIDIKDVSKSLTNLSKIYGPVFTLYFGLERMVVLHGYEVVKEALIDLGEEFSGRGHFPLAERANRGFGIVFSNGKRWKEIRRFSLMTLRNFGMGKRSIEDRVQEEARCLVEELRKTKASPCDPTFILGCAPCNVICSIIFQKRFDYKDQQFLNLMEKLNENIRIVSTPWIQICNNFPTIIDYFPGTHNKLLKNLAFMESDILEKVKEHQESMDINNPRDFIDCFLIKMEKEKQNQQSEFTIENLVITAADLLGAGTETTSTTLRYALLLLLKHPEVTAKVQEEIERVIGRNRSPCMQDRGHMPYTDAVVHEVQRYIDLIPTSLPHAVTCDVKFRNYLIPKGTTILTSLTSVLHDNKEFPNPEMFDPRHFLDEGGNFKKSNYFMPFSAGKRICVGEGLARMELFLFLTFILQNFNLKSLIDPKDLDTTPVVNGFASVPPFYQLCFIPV
# Description: as §4, §5, §6
# [12] = target: T4, CYP2D6 (Homo sapiens, UniProt P10635); assay: Human liver microsome CYP inhibition assay, CYP2D6; format: in vitro ADME; conditions: role: inhibitor; human liver microsomes, probe substrate; read-out: CYP2D6 half maximal inhibitory concentration IC50
# T4 construct: Mixed human liver microsomes (HLM) were purchased from Corning Inc; tissue Corning Inc; host or cells: mixed human liver microsomes (HLM)
# T4 sequence (P10635 whole entry): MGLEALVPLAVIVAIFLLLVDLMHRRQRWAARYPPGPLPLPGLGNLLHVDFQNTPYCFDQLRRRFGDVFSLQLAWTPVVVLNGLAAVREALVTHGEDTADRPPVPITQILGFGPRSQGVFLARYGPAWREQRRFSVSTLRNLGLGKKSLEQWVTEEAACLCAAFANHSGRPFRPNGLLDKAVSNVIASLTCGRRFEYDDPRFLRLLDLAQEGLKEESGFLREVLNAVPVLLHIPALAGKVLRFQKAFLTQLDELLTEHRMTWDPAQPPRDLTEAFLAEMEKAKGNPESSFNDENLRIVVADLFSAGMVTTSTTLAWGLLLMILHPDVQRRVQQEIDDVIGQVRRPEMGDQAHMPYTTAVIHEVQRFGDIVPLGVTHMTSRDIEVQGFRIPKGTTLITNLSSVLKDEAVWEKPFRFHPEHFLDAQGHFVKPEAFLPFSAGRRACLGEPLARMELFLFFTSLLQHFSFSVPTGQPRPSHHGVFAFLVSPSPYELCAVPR
# Description: as §4, §5, §6
# [13] = target: T5, CYP3A4 (Homo sapiens, UniProt P08684); assay: Human liver microsome CYP inhibition assay, CYP3A4; format: in vitro ADME; conditions: role: inhibitor; human liver microsomes, probe substrate; read-out: CYP3A4 half maximal inhibitory concentration IC50
# T5 construct: Mixed human liver microsomes (HLM) were purchased from Corning Inc; tissue Corning Inc; host or cells: mixed human liver microsomes (HLM)
# T5 sequence (P08684 whole entry): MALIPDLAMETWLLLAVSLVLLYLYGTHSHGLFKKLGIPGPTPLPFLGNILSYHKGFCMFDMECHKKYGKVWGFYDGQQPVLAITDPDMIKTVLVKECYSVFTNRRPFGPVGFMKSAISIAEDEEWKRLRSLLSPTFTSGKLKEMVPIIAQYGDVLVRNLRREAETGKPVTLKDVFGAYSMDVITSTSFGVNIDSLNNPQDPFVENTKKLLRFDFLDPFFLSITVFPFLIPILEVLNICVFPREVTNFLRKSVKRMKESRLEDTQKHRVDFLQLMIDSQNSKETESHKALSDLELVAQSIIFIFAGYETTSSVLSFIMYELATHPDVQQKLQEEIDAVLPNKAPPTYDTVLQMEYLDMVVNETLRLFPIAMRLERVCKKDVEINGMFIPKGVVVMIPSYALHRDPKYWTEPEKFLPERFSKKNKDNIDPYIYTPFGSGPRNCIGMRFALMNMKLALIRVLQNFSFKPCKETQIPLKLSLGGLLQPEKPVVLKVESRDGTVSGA
# Description: as §4, §5, §6
Apparent permeability coefficient (Papp (AB)) [1],Plasma protein binding rate (%) in cynomolgus monkeys [2],Human plasma protein binding rate (%) [3],bioavailability [4],half-life [4],Cmax [4],AUC(0-t) at 24 h ([4]; read-out: AUC0-24 h),"efflux ratio at 2.5 h, 2 µM ([5]; MDCK-MDR1, pH 7.4, ER=Papp(BA)/Papp(AB))","Papp A→B at 2.5 h, 2 µM ([5]; MDCK-MDR1, pH 7.4, pH 7.40, 2.5 hours, 37±1° C., read-out: Apparent permeability coefficient (Papp (AB)))",CLint scaled at 1 µM [6],fraction unbound at 4 h [7],fraction unbound at 4 h [8],IC50 [9],IC50 [10],IC50 [11],IC50 [12],IC50 [13],Structure (SMILES)
11.0 10^-6 cm/s,66.4%,70.5%,–,–,–,–,–,–,–,–,–,–,–,–,–,–,"CCC(=O)N[C@H]1CCOc2c(-c3ccc4c(ccc(=O)n4C)c3)cncc21 (single isomer, unassigned) [Compound 044]"
–,–,–,71%,3.23 h,7.86 µM,36.6 µM·h,1.17,18 ×10⁻⁶ cm/s,< 8.6 mL/min/kg,0.304,0.166,> 50 µM,> 50 µM,> 50 µM,> 50 µM,> 50 µM,"CCC(=O)NC1CCOc2c(-c3cc4c(s3)N(C)C(=O)CC4)cncc21 (single isomer, unassigned) [Compound 046]"
